Data reported in patent EP0187057A1, “2-Phenyl-isopropyl-allophanate, preparation and pharmaceutical application” (priority 1984, dated 1986).
“Also recorded” adds a separate entry of the source.

Legend:
[1] = test system: myoclonies palpébrales provoquées par l'infusion veineuse de pentétrazol; assay: Intravenous pentetrazol infusion producing palpebral myoclonus (threshold seizures); type: in vivo, lapin; conditions: reference anticonvulsants, essais croisés, unit not given
Text: (§1) Propriétés anticonvulsivantes : • On a effectué, pour déterminer ces propriétés anticonvulsivantes, des expérimentations sur le SCS 289 en procédant à des essais de protection : • - chez le lapin soumis à une transélectrification cranienne génératrice de crises épileptiformes de type "grand mal" ou recevant une infusion veineuse de pentétrazol provoquant l'apparition de myoclonies palpébrales; • - chez la souris recevant, par voie sous-cutanée des doses croissantes de pentétrazol entraînant convulsions et mort ou soumise à une transélectrification transcranienne à basse fréquence génératrice de crises psychomotrices.
Les résultats quant à la protection contre les crises pentétrazoliques liminaires génératrices de myaclonies palpébrales figurent dans les tableaux ci-après.
L'administration préalable de SCS 289 retarde l'apparition des myoclonies palpébrales provoquées par l'infusion veineuse de pentétrazol.
Une expérimentation similaire pratiquée en essais croisés a donné les résultats suivants pour divers anticonvulsivants de référence : […]

crises psychomotrices = assay: Psychomotor seizures induced by low-frequency transcranial electrical stimulation; type: in vivo, souris; conditions: for Pourcentage de souris protégées une heure après traitement: groupes de 20 souris; for ED50: Mus musculus, po, read-out: DE50 capable de protéger 50 % des animaux contre les crises psychomotrices
Text: as §1
On a également recherché si le SCS 289 était susceptible de protéger la souris contre le choc psychomoteur induit par une stimulation transcranienne à basse fréquence qui provoque, chez l'animal, un bref comportement de désorientation rappelant les attaques psychomotrices de l'homme.
Vis-à-vis des crises psychomotrices provoquées chez la souris par une stimulation électrique transcranienne à basse fréquence, le SCS 35 apparait plus actif que le SCS 289 : […]

[2] = test system: crises épileptiformes consécutives à l'électrochoc; assay: Maximal electroshock producing epileptiform 'grand mal' seizures (1st and 2nd electroshock); type: in vivo, lapin; conditions: for % d'animaux protégés complètement: one hour before second electroshock, groups of ten rabbits
Text: as §1
Ne considérant comme significative, que la protection complète, les traitements pratiqués une heure avant le second électrochoc ont conféré les protection suivantes (sur groupes de dix lapins) :
Si, par ailleurs, on considère la protection contre les crises toniques (hyperextension des pattes postérieures), il apparaît également une synergie particulièrement aux doses associées de 200 mg/kg de produits.

crises pentétrazoliques = assay: Convulsant and lethal effects of subcutaneous pentetrazol (125 mg/kg); type: in vivo, souris
Text: as §1
Pour déceler une synergie d'action antagoniste vis-à-vis des effets convulsivants et létaux du pentétrazol injecté par voie sous-cutanée chez la souris à la dose de 125 mg/kg, on a déterminé avec plus de précision la DE50 du SCS 289 et on a recherché si l'association avec le SCS 35 apportait un surcroit appréciable d'activité.
On n'a retenu comme significative que la protection à l'égard des effets létaux observés sur 24 heures.

CCCC(CCC)C(=O)O [Valproate de sodium]
Elévation du seuil myoclonique ([1]; 100 mg/kg): 54,7
Elévation du seuil myoclonique ([1]; 500 mg/kg): 65,5
Pourcentage de souris protégées une heure après traitement (crises psychomotrices; 50 mg/kg voie digestive): 15%
Pourcentage de souris protégées une heure après traitement (crises psychomotrices; 100 mg/kg voie digestive): 40%
Pourcentage de souris protégées une heure après traitement (crises psychomotrices; 250 mg/kg voie digestive): 85%
ED50 (crises psychomotrices; souris, voie digestive): ~120 mg/kg
DL50/DE50 / Crises psycho-motrices (crises psychomotrices; index thérapeutique absolu, souris): 15
DE50 psychodépressive / DE50 anticonvulsivante / Crises psycho-motrices (crises psychomotrices; index thérapeutique relatif, psychodépressive = mean of DE50 for agilité, force musculaire, motricité, curiosité): 7
protection contre les crises électriques maximales ([2]; 500 mg/kg, same experimental conditions): absolument inefficace; also recorded: inactif

NC(=O)NC(=O)Cc1ccccc1 [Phénacétamide]
Elévation du seuil myoclonique ([1]; 25 mg/kg): 32,4
Elévation du seuil myoclonique ([1]; 50 mg/kg): 43,1
Elévation du seuil myoclonique ([1]; 100 mg/kg): 58,2
Pourcentage de souris protégées une heure après traitement (crises psychomotrices; 10 mg/kg voie digestive): 40%
Pourcentage de souris protégées une heure après traitement (crises psychomotrices; 25 mg/kg voie digestive): 70%
Pourcentage de souris protégées une heure après traitement (crises psychomotrices; 50 mg/kg voie digestive): 85%
Pourcentage de souris protégées une heure après traitement (crises psychomotrices; 100 mg/kg voie digestive): 100%
ED50 (crises psychomotrices; souris, voie digestive): ~14 mg/kg

CCOC(=O)N(C(N)=O)c1ccccc1 [SCS 35, phényl-2 allophanate d'éthyle]
% de protection vis-à-vis de la létalité pentétrazolique (crises pentétrazoliques; 10 mg/kg): 0%
% de protection vis-à-vis de la létalité pentétrazolique (crises pentétrazoliques; 20 mg/kg): 10%
% de protection vis-à-vis de la létalité pentétrazolique (crises pentétrazoliques; 50 mg/kg): 50%
ED50 (crises pentétrazoliques; Mus musculus, sc, 24 h, souris, read-out: DE50 à l'égard des crises pentétrazoliques maximales et létales): 55 mg/kg
Pourcentage de souris protégées une heure après traitement (crises psychomotrices; 5 mg/kg voie digestive): 60%
Pourcentage de souris protégées une heure après traitement (crises psychomotrices; 10 mg/kg voie digestive): 90%
Pourcentage de souris protégées une heure après traitement (crises psychomotrices; 2,5 mg/kg voie digestive): 40%
ED50 (crises psychomotrices; souris, voie digestive): 3.5 mg/kg
DE50 capable de protéger 50 % des animaux contre les crises psychomotrices (crises psychomotrices; souris, voie digestive): 3,5 mg/kg
% d'animaux protégés complètement ([2]; 100 mg/kg): Nul
% d'animaux protégés contre les seules crises toniques ([2]; 100 mg/kg, hyperextension tonique des pattes postérieures): 60%
% d'animaux protégés contre les seules crises toniques ([2]; 200 mg/kg): 80%
% d'animaux protégés complètement ([2]; 200 mg/kg): 10%
